Experimental data published in ChEMBL document CHEMBL1131172 (J Med Chem, 1998).

How the values were obtained:
Type in all cases: functional
[1] = system: 786-0; assay: inhibition of the growth of renal cancer(786-0) cell line; settings: Homo sapiens
[2] = system: 786-0; assay: Inhibition of the growth of renal cancer(786-0) cell line at 0.01 uM; settings: Homo sapiens
[3] = system: A549; assay: inhibition of the growth of non-small-cell lung cancer (A549/ATCC) cell line; settings: Homo sapiens
[4] = system: A549; assay: Inhibition of the growth of non-small-cell lung cancer (A549/ATCC) cell line at 0.01 uM; settings: Homo sapiens
[5] = system: CAKI-1; assay: inhibition of the growth of renal cancer(CAKI-1) cell line; settings: Homo sapiens
[6] = system: CAKI-1; assay: Inhibition of the growth of renal cancer(CAKI-1) cell line at 0.01 uM; settings: Homo sapiens
[7] = molecular target: T1, Bifunctional dihydrofolate reductase-thymidylate synthase (Toxoplasma gondii, UniProt Q07422); assay: Inhibitory activity against dihydrofolate reductase(DHFR) from Toxoplasma gondii
T1 sequence (Q07422 whole entry): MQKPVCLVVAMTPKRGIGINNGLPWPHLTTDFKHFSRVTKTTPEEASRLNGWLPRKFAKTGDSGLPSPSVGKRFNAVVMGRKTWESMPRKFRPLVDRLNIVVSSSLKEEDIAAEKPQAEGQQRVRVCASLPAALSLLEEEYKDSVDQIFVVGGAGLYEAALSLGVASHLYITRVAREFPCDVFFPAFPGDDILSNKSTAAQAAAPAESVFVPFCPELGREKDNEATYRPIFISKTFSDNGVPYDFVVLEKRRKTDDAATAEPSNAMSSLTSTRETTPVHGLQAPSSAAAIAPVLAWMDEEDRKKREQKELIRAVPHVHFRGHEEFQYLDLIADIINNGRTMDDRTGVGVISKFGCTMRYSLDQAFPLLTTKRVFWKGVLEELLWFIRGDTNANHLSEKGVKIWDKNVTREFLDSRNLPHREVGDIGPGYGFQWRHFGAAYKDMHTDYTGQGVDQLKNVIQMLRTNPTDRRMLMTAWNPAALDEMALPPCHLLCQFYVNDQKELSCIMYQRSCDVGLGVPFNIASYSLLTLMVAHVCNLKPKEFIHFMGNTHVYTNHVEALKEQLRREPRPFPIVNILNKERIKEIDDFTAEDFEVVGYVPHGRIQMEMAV

[8] = molecular target: T2, Dihydrofolate reductase (Rattus norvegicus, UniProt Q920D2); assay: Inhibitory activity against dihydrofolate reductase(DHFR) from rat liver
T2 sequence (Q920D2 whole entry): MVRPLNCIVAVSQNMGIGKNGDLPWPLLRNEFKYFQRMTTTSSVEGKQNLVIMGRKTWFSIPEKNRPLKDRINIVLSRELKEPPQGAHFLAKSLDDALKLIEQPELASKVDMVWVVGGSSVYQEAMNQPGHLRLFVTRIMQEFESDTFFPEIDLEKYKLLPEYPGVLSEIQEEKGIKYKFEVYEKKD

[9] = system: DU-145; assay: Inhibition of the growth of prostate cancer(DU-145) cell line at 0.01 uM; settings: Homo sapiens
[10] = system: DU-145; assay: inhibition of the growth of prostate cancer(DU-145) cell line; settings: Homo sapiens
[11] = system: HCT-15; assay: Inhibition of the growth of colon cancer(HCT-15) cell line at 0.01 uM; settings: Homo sapiens
[12] = system: HCT-15; assay: inhibition of the growth of colon cancer(HCT-15) cell line; settings: Homo sapiens
[13] = system: HCT-116; assay: inhibition of the growth of colon cancer(HCT116) cell line; settings: Homo sapiens
[14] = system: HCT-116; assay: Inhibition of the growth of colon cancer(HCT116) cell line at 0.01 uM; settings: Homo sapiens
[15] = system: IGROV-1; assay: inhibition of the growth of ovarian cancer(IGROVI) cell line; settings: Homo sapiens
[16] = system: KM12; assay: inhibition of the growth of colon cancer(KM-12) cell line. value in parentheses is percent inhibition at 0.01 uM; settings: Homo sapiens
[17] = system: M14; assay: Inhibition of the growth of melanoma cancer (M14) cell line at 0.01 uM; settings: Homo sapiens
[18] = system: MOLT-4; assay: inhibition of the growth of leukemia (MOLT-4) cell line; settings: Homo sapiens
[19] = system: NCI/ADR-RES; assay: inhibition of the growth of breast cancer (MCF7/ADR-RES) cell line; settings: Homo sapiens
[20] = system: NCI/ADR-RES; assay: Inhibition of the growth of breast cancer (MCF7/ADR-RES) cell line at 0.01 uM; settings: Homo sapiens
[21] = system: MDA-MB-435; assay: Inhibition of the growth of breast cancer (MDA-MB-435) cell line; settings: Homo sapiens
[22] = system: M14; assay: inhibition of the growth of melanoma cancer (M14) cell line; settings: Homo sapiens
[23] = system: MDA-N; assay: inhibition of the growth of breast cancer(MDA-N) cell line; settings: Homo sapiens
[24] = system: MDA-N; assay: Inhibition of the growth of breast cancer(MDA-N) cell line at 0.01 uM; settings: Homo sapiens
[25] = system: MDA-MB-435; assay: Inhibition of the growth of breast cancer (MDA-MB-435) cell line at 0.01 uM; settings: Homo sapiens
[26] = system: MCF7; assay: inhibition of the growth of breast cancer (MCF-7) cell line; settings: Homo sapiens
[27] = system: NCI-H460; assay: inhibition of the growth of non-small-cell lung cancer (NCI-H460) cell line; settings: Homo sapiens
[28] = system: NCI-H522; assay: inhibition of the growth of non-small-cell lung cancer (NCI-H522) cell line; settings: Homo sapiens
[29] = system: NCI-H522; assay: Inhibition of the growth of non-small-cell lung cancer (NCI-H522) cell line at 0.01 uM; settings: Homo sapiens
[30] = system: NCI-H322M; assay: inhibition of the growth of non-small-cell lung cancer (NCI-H322M) cell line; settings: Homo sapiens
[31] = system: NCI-H322M; assay: Inhibition of the growth of non-small-cell lung cancer (NCI-H322M) cell line at 0.01 uM; settings: Homo sapiens
[32] = system: OVCAR-8; assay: inhibition of the growth of ovarian cancer(OVCAR-8) cell line; settings: Homo sapiens
[33] = system: NCI-H460; assay: Inhibition of the growth of non-small-cell lung cancer (NCI-H460) cell line at 0.01 uM; settings: Homo sapiens
[34] = system: NCI-H23; assay: inhibition of the growth of non-small-cell lung cancer (NCI-H23) cell line; settings: Homo sapiens
[35] = system: NCI-H23; assay: Inhibition of the growth of non-small-cell lung cancer (NCI-H23) cell line at 0.01 uM; settings: Homo sapiens
[36] = system: RPMI-8226; assay: Inhibition of the growth of leukemia (RPMI-8226) cell line at 0.01 uM; settings: Homo sapiens
[37] = system: RPMI-8226; assay: inhibition of the growth of leukemia (RPMI-8226) cell line; settings: Homo sapiens
[38] = system: SF-268; assay: Inhibition of the growth of CNS cancer(SF-268) cell line at 0.01 uM; settings: Homo sapiens
[39] = system: SF-268; assay: inhibition of the growth of CNS cancer(SF-268) cell line; settings: Homo sapiens
[40] = system: SF-295; assay: inhibition of the growth of CNS cancer(SF-295) cell line; settings: Homo sapiens
[41] = system: SF-295; assay: Inhibition of the growth of CNS cancer(SF-295) cell line at 0.01 uM; settings: Homo sapiens
[42] = system: SF-539; assay: Inhibition of the growth of CNS cancer(SF-539) cell line at 0.01 uM; settings: Homo sapiens
[43] = system: SNB-19; assay: inhibition of the growth of CNS cancer(SNB-19) cell line; settings: Homo sapiens
[44] = system: SNB-19; assay: Inhibition of the growth of CNS cancer(SNB-19) cell line at 0.01 uM; settings: Homo sapiens
[45] = system: SF-539; assay: inhibition of the growth of CNS cancer(SF-539) cell line; settings: Homo sapiens
[46] = system: SR; assay: inhibition of the growth of leukemia(SR) cell line; settings: Homo sapiens
[47] = system: SR; assay: Inhibition of the growth of leukemia(SR) cell line at 0.01 uM; settings: Homo sapiens
[48] = system: SK-MEL-5; assay: inhibition of the growth of melanoma cancer (SK-MEL-5) cell line; settings: Homo sapiens
[49] = system: SK-MEL-5; assay: Inhibition of the growth of melanoma cancer (SK-MEL-5) cell line at 0.01 uM; settings: Homo sapiens
[50] = system: UO-31; assay: inhibition of the growth of renal cancer(UO-31) cell line; settings: Homo sapiens
[51] = system: UO-31; assay: Inhibition of the growth of renal cancer(UO-31) cell line at 0.01 uM; settings: Homo sapiens
[52] = system: IGROV-1; assay: Inhibition of the growth of ovarian cancer(IGROVI) cell line at 0.01 uM; settings: Homo sapiens
[53] = system: OVCAR-8; assay: Inhibition of the growth of ovarian cancer(OVCAR-8) cell line at 0.01 uM; settings: Homo sapiens

With `CN(c1ccc2ccccc2c1)c1ccc2nc(N)nc(N)c2n1` as the compound, how does the GI50 [1] read?
Its GI50 is under 10 nM.

What about the inhibition at 0.01 µM [2] of the same compound?
Its inhibition at 0.01 µM is 54%.

And the GI50 [3]?
The GI50 was under 10 nM.

And the inhibition at 0.01 µM [4]?
Its inhibition at 0.01 µM is 65%.

And the GI50 [5]?
Its GI50 is under 10 nM.

And the inhibition at 0.01 µM [6]?
Its inhibition at 0.01 µM is 74%.

And the IC50 [7]?
Its IC50 is 14.5 nM.

And the IC50 [8]?
Its IC50 is 9.9 nM.

And the inhibition at 0.01 µM [9]?
The inhibition at 0.01 µM was 51%.

And the GI50 [10]?
Its GI50 is under 10 nM.

And the inhibition at 0.01 µM [11]?
The inhibition at 0.01 µM was 69%.

What about the GI50 [12] of the same compound?
The GI50 was under 10 nM.

And the GI50 [13]?
The GI50 was under 10 nM.

What about the inhibition at 0.01 µM [14] of the same compound?
The inhibition at 0.01 µM was 85%.

What about the GI50 [15] of the same compound?
The GI50 was under 10 nM.

And the GI50 [16]?
The GI50 was 10 nM.

And the inhibition at 0.01 µM [17]?
Its inhibition at 0.01 µM is 54%.

What about the GI50 [18] of the same compound?
The GI50 was 20 nM.

And the GI50 [19]?
Its GI50 is under 10 nM.

And the inhibition at 0.01 µM [20]?
The inhibition at 0.01 µM was 100%.

And the GI50 [21]?
Its GI50 is under 10 nM.

What about the GI50 [22] of the same compound?
The GI50 was under 10 nM.

And the GI50 [23]?
The GI50 was under 10 nM.

What about the inhibition at 0.01 µM [24] of the same compound?
The inhibition at 0.01 µM was 75%.

And the inhibition at 0.01 µM [25]?
The inhibition at 0.01 µM was 66%.

What about the GI50 [26] of the same compound?
The GI50 was 30 nM.

And the GI50 [27]?
The GI50 was under 10 nM.

And the GI50 [28]?
Its GI50 is under 10 nM.

And the inhibition at 0.01 µM [29]?
Its inhibition at 0.01 µM is 60%.

And the GI50 [30]?
Its GI50 is under 10 nM.

And the inhibition at 0.01 µM [31]?
Its inhibition at 0.01 µM is 56%.

What about the GI50 [32] of the same compound?
The GI50 was under 10 nM.

And the inhibition at 0.01 µM [33]?
Its inhibition at 0.01 µM is 79%.

And the GI50 [34]?
Its GI50 is under 10 nM.

And the inhibition at 0.01 µM [35]?
The inhibition at 0.01 µM was 63%.

And the inhibition at 0.01 µM [36]?
Its inhibition at 0.01 µM is 66%.

What about the GI50 [37] of the same compound?
The GI50 was under 10 nM.

And the inhibition at 0.01 µM [38]?
Its inhibition at 0.01 µM is 52%.

And the GI50 [39]?
The GI50 was under 10 nM.

What about the GI50 [40] of the same compound?
Its GI50 is under 10 nM.

And the inhibition at 0.01 µM [41]?
The inhibition at 0.01 µM was 63%.

What about the inhibition at 0.01 µM [42] of the same compound?
The inhibition at 0.01 µM was 66%.

And the GI50 [43]?
The GI50 was under 10 nM.

And the inhibition at 0.01 µM [44]?
The inhibition at 0.01 µM was 62%.

And the GI50 [45]?
The GI50 was under 10 nM.

And the GI50 [46]?
The GI50 was under 10 nM.

And the inhibition at 0.01 µM [47]?
The inhibition at 0.01 µM was 57%.

And the GI50 [48]?
Its GI50 is under 10 nM.

And the inhibition at 0.01 µM [49]?
Its inhibition at 0.01 µM is 77%.

And the GI50 [50]?
Its GI50 is under 10 nM.

And the inhibition at 0.01 µM [51]?
The inhibition at 0.01 µM was 54%.

What about the inhibition at 0.01 µM [52] of the same compound?
The inhibition at 0.01 µM was 65%.

What about the inhibition at 0.01 µM [53] of the same compound?
The inhibition at 0.01 µM was 95%.
